Measurements from patent US12509482B2, “3′-ketoglycoside compound for the slow release of a volatile alcohol” (GLYCOSCIENCE, S.L., priority 2020, dated 2025).
Several values for one entry are separate records, joined by “and”; a condition that tells them apart may be missing. Equal entries are not always repeated. Values belong to the molecule of their own block, whether it stands above or below them.

Key:
[1] = test system: mosquito Culex pipiens pallens; settings: Park et al., J. Am. Mosquito Control Assoc., 2005; cited from earlier work
[2] = Example 16: release of geraniol from geranyl-O-β-D-3′-ketoglucopyranoside, 0.1 M deuterated phosphate buffer, 10% D6-DMSO, 37° C., presence and absence of fresh skin wash; type: physicochemical
Procedure: In this example the rate of release of geraniol from (2R,3S,6R)-2-(((E)-3,7-dimethylocta-2,6-dien-1-yl)oxy)-3,5-dihydroxy-6-(hydroxymethyl)tetrahydro-4H-pyran-4-one (geranyl-O-β-D-3′-ketoglucopyranoside) in 0.1 M deuterated phosphate buffer solutions of differing pH containing 10% D6-DMSO or in D2O containing 10% D6-DMSO at 37° C. in the presence and absence of fresh skin wash was determined.
1 M Stock solutions of sodium dihydrogen phosphate and disodium hydrogen phosphate were prepared in deuterated water (D2O).
A stock solution of 25 mg of geranyl-O-β-D-3′-ketoglucopyranoside in 0.5 mL of D6-DMSO were prepared.
In a typical experiment, a stock solution of fresh skin wash suspension was prepared by swabbing a 25 cm^2 areas of cheek skin of a human volunteer by robustly rubbing the area with a cotton wool gauze (5×5 cm^2) soaked in D2O (12.5 mL) for 1 minute and then resuspending the gauze in the D2O solution, rapidly shaking and removing the gauze after squeezing out as much liquid as possible with a spatula. 1 M Stock solutions phosphate buffer, pH 5.7 and 7.0 were prepared by appropriately mixing 1 M stock phosphate salts solutions to the correct pH as determined using a calibrated pH meter.
Half of each buffer stock solution was diluted ten times with D2O and the other with the above skin washing stock solution to give a 0.1 M phosphate buffer in D2O with a final pH of 5.7, 0.1 M phosphate buffer in D2O with a final pH of 7.0, a 0.1 M phosphate buffer in skin wash solution with a final pH of 5.7 and a 0.1 M phosphate buffer in skin wash solution with a final pH of 7.0.
To three parallel reaction vials, where indicated in the reaction table below, was added 0.45 mL of low or high pH 0.1 M phosphate buffer in D2O or 0.45 mL of low or high pH 0.1M phosphate buffer in skin wash solution followed by 0.05 mL of the glycoside substrate solutions in D6-DMSO and the mixtures incubated by shaking at 37° C. After times indicated in table below, the mixtures where analysed by ^1H-NMR with 128 scans using a 400 MHz instrument.

[3] = Example 17: release of geraniol from a 40 mg/mL suspension of geranyl-O-β-D-3′-ketoglucopyranoside, 0.1 M phosphate buffer pH 7, 10% DMSO, 37° C.; type: physicochemical; settings: after 3 d
Procedure: In this example the rate of release of geraniol from a 40 mg/mL suspension of (2R,3S,6R)-2-(((E)-3,7-dimethylocta-2,6-dien-1-yl)oxy)-3,5-dihydroxy-6-(hydroxymethyl)tetrahydro-4H-pyran-4-one (geranyl-O-β-D-3′-ketoglucopyranoside) in 0.1 M deuterated phosphate buffer solution, pH 7, containing 10% DMSO at 37° C. was determined.
In a stoppered glass vial, geranyl-O-β-D-3′-ketoglucopyranoside (20 mg) was dissolved in D6-DMSO (0.05 mL) then diluted with 0.1 M sodium phosphate buffer, pH 7.0 (0.45 mL) and the resultant suspension incubated by shaking at 37° C.

[4] = Example 31: stability of geranyl-O-β-D-3′-ketoglucopyranoside in D2O at 50° C.; type: physicochemical; settings: 5 mg in D2O (1 mL), 2 weeks
Procedure: Geranyl-O-β-D-3′-ketoglucopyranoside, obtained according to Example 4 (5 mg) was added to D2O (1 mL) and heated at 50° C.

[5] = Example 32: release of geraniol from geranyl-O-β-D-3′-ketoglucopyranoside (PEG200, L-arginine, calcium chloride solution) on a paper kitchen towel disc, room temperature; type: physicochemical
Procedure: Geranyl-O-β-D-3′-ketoglucopyranoside, obtained according to Example 4, (50 mg) was dissolved in polyethylene glycol 200 (PEG200) (0.1 mL) with gentle heating. 0.1 mL of a solution of L-arginine (10 mg) dissolved in 0.1 mL of a 3:7 w/v solution of anhydrous calcium chloride in water was then added and thoroughly mixed. The resultant solution was spread over a 5 cm diameter paper kitchen towel disc and left to stand at room temperature. The smell of released geraniol evolved from the disc was then assessed with time as strong, medium or weak and reported in Table XIX:
After 19 h, the reaction mixture was dissolved in D4-MeOH and analysed by 1H NMR.

[6] = test system: Aedes albopictus mosquitoes; assay: Example 33: in vitro mosquito testing, landings on treated Hemotek membranes; type: in vivo; settings: for Landing (total number of landings over the 20-minute exposure): 50 mg on membrane, 15 females, duplicate membranes
Procedure: Aedes albopictus mosquitoes were reared and maintained at 26±2° C. temperature, ≥80%±10 relative humidity, with a 12 h:12 h (light:dark) photoperiod.
Populations of adult mosquitoes were allowed to feed on sugar solution (10%) but were not blood fed before tests.
Geranyl-O-β-D-3′-ketoglucopyranoside, obtained according to Example 4, (100 mg) was dissolved in polyethylene glycol 200 (PEG200) (0.2 mL) with gentle heating to give Solution 1. Then 200 mg of L-arginine was dissolved in 2 mL of a 3:7 w/v solution of anhydrous calcium chloride in water to give Solution 2. Solution 2 (0.2 mL) was added to all of Solution 1 to give Solution 3. The contents of Solution 3 were thoroughly mixed and half of the resultant solution was applied to parallel 5 cm diameter artificial Hemotek membranes covered with paper kitchen towel of equal diameter. Parallel duplicate membranes, covered with paper kitchen towel, were also each treated with 0.2 mL of a 1:1 v/v solution of PEG200/Solution 2 and a further two parallel membranes were left untreated.
The membranes were heated over a reservoir of sheeps' blood at 37° C. using a Hemotek system and periodically exposed to 5- to 7-day old active host-seeking female mosquitoes, selected and collected using an aspirator and organized into batches (15 females) in plastic test containers. The heating was switched off between exposures to maintain membrane integrity and switched on 5 minutes prior to each exposure. Each membrane was exposed to a fresh container of female mosquitos for 20 minutes immediately after membrane preparation and again after 2 h, 4 h, 6 h and 8 h. At each time point, the number of mosquitos landing on each membrane immediately after exposure and 5, 10 and 20 minutes after exposure was counted and the total number of landings over each 20-minute exposure summed and tabulated.

[7] = Description: alcohol release from model compounds (III), (IV) and compound (V) in buffer, water and skin washings; type: physicochemical

SMILES: Cc1ccc(C(C)C)cc1O [Carvacrol, 2-methyl-5-propan-2-ylphenol]
- repellency compared with DEET (in words) [1]: outperformed N,N-diethyl-m-methylbenzamide (DEET)

- % Conversion by 1H-NMR ([2]; 0.1M buffer in D2O, final pH 5.7, 19 h): 3%
- % Conversion by 1H-NMR ([2]; 0.1M buffer in D2O, final pH 5.7, 41 h): 6%
- % Conversion by 1H-NMR ([2]; 0.1M buffer in D2O, final pH 5.7, 72 h): 10%
- % Conversion by 1H-NMR ([2]; 0.1M buffer in D2O, final pH 7.0, 19 h): 9%
- % Conversion by 1H-NMR ([2]; 0.1M buffer in D2O, final pH 7.0, 41 h): 28%
- % Conversion by 1H-NMR ([2]; 0.1M buffer in D2O, final pH 7.0, 72 h): 51%
- % Conversion by 1H-NMR ([2]; 0.1M buffer in skin wash solution, final pH 7.0, 19 h): 10%
- % Conversion by 1H-NMR ([2]; 0.1M buffer in skin wash solution, final pH 7.0, 41 h): 31%
- % Conversion by 1H-NMR ([2]; 0.1M buffer in skin wash solution, final pH 7.0, 72 h): 48%
- extent of conversion to geraniol by 1H-NMR [3]: approximately 50%
- smell of geraniol [3]: a strong smell of geraniol was observed
- stability in D2O by 1H NMR (in words) [4]: stable
- Geraniol strength by smell ([5]; 0 h): strong
- Geraniol strength by smell ([5]; 0.3 h): strong
- Geraniol strength by smell ([5]; 2 h): strong
- Geraniol strength by smell ([5]; 3 h): strong
- Geraniol strength by smell ([5]; 4 h): strong
- Geraniol strength by smell ([5]; 6 h): strong
- Geraniol strength by smell ([5]; 11 h): medium
- Geraniol strength by smell ([5]; 19 h): medium
- degraded ([7]; after 3 days): approximately 50%
SMILES: CC(C)=CCC/C(C)=C/CO[C@@H]1O[C@H](CO)[C@@H](O)C(=O)[C@H]1O [geranyl-O-β-D-3′-ketoglucopyranoside, (2R,3S,6R)-2-(((E)-3,7-dimethylocta-2,6-dien-1-yl)oxy)-3,5-dihydroxy-6-(hydroxymethyl)tetrahydro-4H-pyran-4-one]
- pH dependence of geraniol release (in words) ([2]; 37° C., presence or absence of skin wash): only slowly degraded at pH 5.8, but releases geraniol at a significantly higher rate at pH 7.4 that is unchanged in the presence or absence of skin wash
- Landing (total number of landings over the 20-minute exposure) ([6]; 6 h, listed as GS0010): 4 and 3
- Landing (total number of landings over the 20-minute exposure) ([6]; 8 h): 0
- repellent effect (conclusion in words) ([6]; in vivo): a repellent effect is provided
- landings compared with diluent treated or untreated membranes (in words) ([6]; over 8 h): significantly fewer landings than observed with diluent treated or untreated membranes
- degradation rate compared with compound (III) (in words) [7]: degraded significantly faster than compound (III)
- aroma of geraniol on opening the stoppered reaction vessel ([7]; 20 mg/mL mixture, after 3 d): a very pungent aroma of geraniol was immediately noticeable
